In ChEMBL document CHEMBL1201862, “PubChem BioAssay data set” (2004):
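Method: 48-hour compound exposure of cells in 96-well plates, five concentrations, linear interpolation of endpoints. GI50 marks 50% less growth.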 Activity calls are given as the source filed them. No stated cut-off is given here; in the data, active = GI50 up to about 1.1 µM and inactive = higher.

How the values were obtained:
Assay in all cases: NCI-60 cell line screen, 48 h
[1] = test system: SR
[2] = test system: U-251
[3] = test system: HT-29
[4] = test system: RXF 393
[5] = test system: SNB-19
[6] = test system: NCI-H460
[7] = test system: XF498
[8] = test system: SK-MEL-28
[9] = test system: UACC-62
[10] = test system: HCC 2998
[11] = test system: OVCAR-4
[12] = test system: NCI-H522
[13] = test system: OVCAR-5
[14] = test system: HL-60
[15] = test system: SK-MEL-5
[16] = test system: RPMI-8226

Row | SMILES | GI50 [1] | GI50 [2] | GI50 [3] | GI50 [4] | GI50 [5] | GI50 [6] | GI50 [7] | GI50 [8] | GI50 [9] | GI50 [10] | GI50 [11] | GI50 [12] | GI50 [13] | GI50 [14] | GI50 [15] | GI50 [16]
1 | COC1=CC(C2c3cc4c(cc3[C@@H](Nc3ccc([N+](=O)[O-])cc3)C3COC(=O)[C@H]23)OCO4)=CC(=O)C1=O (stereo not given in full) | 0.179 µM (active) | 1.35 µM (inactive) | 7.21 µM (inactive) | 17.9 µM (inactive) | 3.07 µM (inactive) | 0.277 µM (active) | 5.5 µM (inactive) | 14.8 µM (inactive) | 2.18 µM (inactive) | 2.63 µM (inactive) | 59.3 µM (inactive) | 2.58 µM (inactive) | 5.53 µM (inactive) | 0.982 µM (active) | 3.48 µM (inactive) | 2.43 µM (inactive)
2 | COC(=O)C[S+]([O-])c1ccccc1 (stereo not given) | – | 24.4 µM (inactive) | 36.6 µM (inactive) | 16.4 µM (inactive) | 37.8 µM (inactive) | 59.8 µM (inactive) | 76.7 µM (inactive) | 29.8 µM (inactive) | 29.2 µM (inactive) | 25.3 µM (inactive) | 41.2 µM (inactive) | 13.8 µM (inactive) | 68.4 µM (inactive) | 15.5 µM (inactive) | 25.4 µM (inactive) | 21.9 µM (inactive)
3 | COC(=O)N/N=C/c1oc(-c2ccccc2)c(-c2ccccc2)c1[N+](=O)[O-] | > 100 µM (inactive) | > 100 µM (inactive) | > 100 µM (inactive) | > 100 µM (inactive) | > 100 µM (inactive) | > 100 µM (inactive) | > 100 µM (inactive) | > 100 µM (inactive) | > 100 µM (inactive) | > 100 µM (inactive) | > 100 µM (inactive) | > 100 µM (inactive) | > 100 µM (inactive) | > 100 µM (inactive) | > 100 µM (inactive) | > 100 µM (inactive)
4 | COc1ccc(CC#C/C=C/C(=O)NCC(C)C)cc1 | 66.1 µM (inactive) | > 100 µM (inactive) | > 100 µM (inactive) | 40.3 µM (inactive) | > 100 µM (inactive) | > 100 µM (inactive) | > 100 µM (inactive) | > 100 µM (inactive) | > 100 µM (inactive) | > 100 µM (inactive) | > 100 µM (inactive) | > 100 µM (inactive) | > 100 µM (inactive) | 29.5 µM (inactive) | > 100 µM (inactive) | > 100 µM (inactive)
5 | CCCC(C)NC1=C(NC(C)=O)C(=O)c2ccccc2C1=O (stereo not given) | > 100 µM (inactive) | > 100 µM (inactive) | > 100 µM (inactive) | > 100 µM (inactive) | > 100 µM (inactive) | > 100 µM (inactive) | > 100 µM (inactive) | > 100 µM (inactive) | > 100 µM (inactive) | > 100 µM (inactive) | > 100 µM (inactive) | 64.7 µM (inactive) | – | 97.3 µM (inactive) | 73.8 µM (inactive) | –
6 | CC(=O)Oc1ccc(O)c2c1CCCC2 | 2.82 µM (inactive) | > 78.3 µM (inactive) | 35.7 µM (inactive) | > 42.8 µM (inactive) | > 100 µM (inactive) | > 31.6 µM (inactive) | 16.4 µM (inactive) | 66.4 µM (inactive) | > 75.5 µM (inactive) | > 100 µM (inactive) | 19 µM (inactive) | 13.6 µM (inactive) | > 100 µM (inactive) | 3.66 µM (inactive) | > 45.7 µM (inactive) | 23.3 µM (inactive)
7 | O=C1c2ccccc2C(=O)N1C/C=N/NS(=O)(=O)c1ccc2ccccc2c1 | > 100 µM (inactive) | > 100 µM (inactive) | > 100 µM (inactive) | – | > 100 µM (inactive) | > 100 µM (inactive) | > 100 µM (inactive) | – | > 100 µM (inactive) | > 100 µM (inactive) | > 100 µM (inactive) | > 100 µM (inactive) | > 100 µM (inactive) | > 100 µM (inactive) | > 100 µM (inactive) | > 100 µM (inactive)
8 | COc1ccc(C(c2c(O)c3ccccc3n(-c3ccccc3)c2=O)c2c(O)c3ccccc3n(-c3ccccc3)c2=O)cc1 | 72.4 µM (inactive) | > 100 µM (inactive) | – | > 100 µM (inactive) | > 100 µM (inactive) | – | 59.3 µM (inactive) | > 100 µM (inactive) | – | > 100 µM (inactive) | > 100 µM (inactive) | > 100 µM (inactive) | > 100 µM (inactive) | – | > 100 µM (inactive) | > 100 µM (inactive)
9 | Cc1ccc(NC(=O)C(=O)C(C#N)c2ccccc2C)cc1C (stereo not given) | > 100 µM (inactive) | > 77.3 µM (inactive) | > 100 µM (inactive) | > 100 µM (inactive) | > 100 µM (inactive) | > 48.5 µM (inactive) | > 100 µM (inactive) | > 100 µM (inactive) | > 100 µM (inactive) | > 54.3 µM (inactive) | > 100 µM (inactive) | > 92.5 µM (inactive) | > 100 µM (inactive) | > 54.1 µM (inactive) | > 100 µM (inactive) | > 57.8 µM (inactive)
